From PubChem BioAssay AID1963840 (Molecular Pharmacology Branch, DTP, NCI, 2024) come the findings set out here.
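Further: spheroids exposed to compounds for seven days.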

The test system of the first assay is 695427-040-R-J1-PDC complex spheroid viability. The assay can be described thus: Anticancer human tumor 695427-040-R-J1-PDC patient-derived colon adenocarcinoma cell line growth inhibition [POLQ]. To be noted: curve of first compound; second compound 0.0316 µM. On the procedure:
Multicellular complex tumor spheroid response to Polymerase (POL) inhibitors (novobiocin, ART-558, RP6685) in combination with a variety of drugs and investigational agents in selected tumor cell lines
The POL inhibitors (novobiocin, ART-558, and RP6685) were evaluated both individually and in combination with standard of care and investigational anticancer small molecules within a complex spheroid model of solid tumors. . Complex spheroids include a stromal component modeled by human endothelial cells (HUVEC) and fibroblasts modeled by human mesenchymal stem cells (MSCs). The concentration ranges selected for each drug and investigational agent were based upon clinically achievable concentrations if the clinical Cmax of the agent was known.
Compounds. The drugs and investigational agents: novobiocin (NSC847541), ART-558 (NSC835418), RP-6685 (NSC848927), peposertib (NSC802822), ceralasertib (NSC780249), elimusertib (NSC800525), camonsertib (NSC841442), AZD-1390 (NSC803789), olaparib (NSC753686), talazoparib (NSC767125), rucaparib (NSC756644), sotorasib (NSC818433), MRTX-1133 (NSC836407), SN-38 (NSC673596), topotecan (NSC609699), epotoside (NSC141540), doxorubicin (NSC123127), gemcitabine (NSC613327), 5-fluorouracil (NSC19893), paclitaxel (NSC125973), vemurafenib (NSC761431), MSA-2 (NSC828583), SN-011 (NSC837082), adavosertib (NSC754352), prexasertib (NSC758257), carboplatin (NSC241240) and oxaliplatin (NSC266046), were obtained from the National Cancer Institute (NCI) Developmental Therapeutics Program Chemical Repository (21). The FDA-approved anticancer drug set is available from the Developmental Therapeutics Program at https://dtp.cancer.gov/organization/dscb/obtaining/. […] The stock solutions were prepared in dimethyl sulfoxide (DMSO, Sigma-Aldrich, St. Louis, MO, cat. D2650), except for the platinum compounds which were prepared in saline (Quality Biological, Gaithersburg, MD, cat. 114-055-101), at 800-fold the tested concentration and stored at -70 degrees C prior to their use. All drugs and investigational agents were tested over a range starting from a high concentration at or near the clinical Cmax and decreasing in half-log increments. If the clinical Cmax for an agent had not been determined, the highest concentration tested was 10 microM, except for SN-38, which was tested at a high concentration of 1 microM.
Cell Culture. All cells were maintained in an incubator at 37 degrees C and 5% CO2 with 95% humidity. The PDC lines were cultured according to standard operating procedures established by the NCI PDMR (https://pdmr.cancer.gov). Table 3 of the manuscript, lists the cell lines along with the number of the three cell types plated to form the mct-spheroids and media for tumor cell growth. After thawing, all PDC lines, except 997537-175-T-J1-PDC and 415267-285-R-J2-PDC, were cultured in Matrigel-coated flasks prepared with a working solution of 1X Ham's F-12 nutrient mix, without supplementation (Thermo Fisher Scientific, cat. 11765054), 100 U/mL penicillin-streptomycin (Thermo Fisher Scientific, cat. 15140122), and 2.5% Matrigel (Corning Inc., Corning, NY, cat. 354248) for the first three passages. The two PDC lines 997537-175-T-J1-PDC and 415267-285-R-J2-PDC were cultured on uncoated flasks. The 857933-349-R-J2-PDC line was cultured in 6C/Colon 1B media containing advanced DMEM/F-12 (Thermo Fisher Scientific, cat. 12634028), 10 mM HEPES (Thermo Fisher Scientific, cat. 15630080), 1X GlutaMAX supplement (Thermo Fisher Scientific, cat. 35050061), 0.1 mg/mL primocin (InvivoGen, San Diego, CA, cat. ant-pm-2), 10% defined fetal bovine serum, heat inactivated (HyClone Laboratories Inc., Logan, UT, cat. SH30070.03HI), 50% L-WRN conditioned media (ATCC, cat. CRL-3276), 1.25 mM N-Acetyl-L-cysteine (Sigma-Aldrich, cat. A9165), 10 mM nicotinamide (Sigma-Aldrich, cat. N0636), 1X B-27 supplement (Thermo Fisher Scientific, cat. 17504044), 1X N-2 supplement (Thermo Fisher Scientific, cat. […]
Turning to `COc1cc2cc(C(=O)CCC(=O)O)sc2cc1OC` + Cc1cccc(N(C)C(=O)C2C(O)CCN2c2nc(C)cc(C(F)(F)F)c2C#N)c1, the IC50 is more than 10 µM.

As to `O=C(Nc1ccc(O)c(NS(=O)(=O)c2ccc(F)cc2)c1)c1ccc(-c2ccccc2)cc1` + Cc1cccc(N(C)C(=O)C2C(O)CCN2c2nc(C)cc(C(F)(F)F)c2C#N)c1, the half-maximal inhibitory concentration (IC50) was more than 10 µM.

Turning to `Nc1ccn(C2OC(CO)C(O)C2(F)F)c(=O)n1` (stereo unspecified) + Nc1ccc(C#CCN(C(=O)Cc2ncc(C(F)(F)F)cc2C(F)(F)F)c2ccc(F)cc2)nn1, the IC50 is more than 10 µM.

The same assay, now with this note: curve of first compound; second compound 0.1 µM.
`COc1cc2cc(C(=O)CCC(=O)O)sc2cc1OC` + Cc1cccc(N(C)C(=O)C2C(O)CCN2c2nc(C)cc(C(F)(F)F)c2C#N)c1: the IC50 was more than 10 µM.

Take `O=C(Nc1ccc(O)c(NS(=O)(=O)c2ccc(F)cc2)c1)c1ccc(-c2ccccc2)cc1` + Cc1cccc(N(C)C(=O)C2C(O)CCN2c2nc(C)cc(C(F)(F)F)c2C#N)c1: the half-inhibitory concentration (IC50) was more than 10 µM.

Turning to `Nc1ccn(C2OC(CO)C(O)C2(F)F)c(=O)n1` (stereo unspecified) + Nc1ccc(C#CCN(C(=O)Cc2ncc(C(F)(F)F)cc2C(F)(F)F)c2ccc(F)cc2)nn1, the concentration for half-maximal inhibition (IC50) is more than 10 µM.

The same assay, now with this note: curve of first compound; second compound 0.316 µM.
Regarding `COc1cc2cc(C(=O)CCC(=O)O)sc2cc1OC` + Cc1cccc(N(C)C(=O)C2C(O)CCN2c2nc(C)cc(C(F)(F)F)c2C#N)c1, the IC50 was more than 10 µM.

Take `O=C(Nc1ccc(O)c(NS(=O)(=O)c2ccc(F)cc2)c1)c1ccc(-c2ccccc2)cc1` + Cc1cccc(N(C)C(=O)C2C(O)CCN2c2nc(C)cc(C(F)(F)F)c2C#N)c1: the IC50 is more than 10 µM.

On to `Nc1ccn(C2OC(CO)C(O)C2(F)F)c(=O)n1` (stereo unspecified) + Nc1ccc(C#CCN(C(=O)Cc2ncc(C(F)(F)F)cc2C(F)(F)F)c2ccc(F)cc2)nn1, for which the IC50 is more than 10 µM.

The same assay, now with this note: curve of first compound; second compound 1 µM.
Take `COc1cc2cc(C(=O)CCC(=O)O)sc2cc1OC` + Cc1cccc(N(C)C(=O)C2C(O)CCN2c2nc(C)cc(C(F)(F)F)c2C#N)c1: the IC50 is more than 10 µM.

Take `O=C(Nc1ccc(O)c(NS(=O)(=O)c2ccc(F)cc2)c1)c1ccc(-c2ccccc2)cc1` + Cc1cccc(N(C)C(=O)C2C(O)CCN2c2nc(C)cc(C(F)(F)F)c2C#N)c1: the IC50 was more than 10 µM.

For the compound `Nc1ccn(C2OC(CO)C(O)C2(F)F)c(=O)n1` (stereo unspecified) + Nc1ccc(C#CCN(C(=O)Cc2ncc(C(F)(F)F)cc2C(F)(F)F)c2ccc(F)cc2)nn1, the half-inhibitory concentration (IC50) is more than 10 µM.

The assay is the same for the next values; noted with them: curve of first compound; second compound 3.16 µM.
For the compound `COc1cc2cc(C(=O)CCC(=O)O)sc2cc1OC` + Cc1cccc(N(C)C(=O)C2C(O)CCN2c2nc(C)cc(C(F)(F)F)c2C#N)c1, the half-inhibitory concentration (IC50) was more than 10 µM.

With `O=C(Nc1ccc(O)c(NS(=O)(=O)c2ccc(F)cc2)c1)c1ccc(-c2ccccc2)cc1` + Cc1cccc(N(C)C(=O)C2C(O)CCN2c2nc(C)cc(C(F)(F)F)c2C#N)c1, the IC50 was more than 10 µM.

With `Nc1ccn(C2OC(CO)C(O)C2(F)F)c(=O)n1` (stereo unspecified) + Nc1ccc(C#CCN(C(=O)Cc2ncc(C(F)(F)F)cc2C(F)(F)F)c2ccc(F)cc2)nn1, the half-inhibitory concentration (IC50) was more than 10 µM.

The assay is the same for the next values; noted with them: curve of first compound; second compound 10 µM.
On to `COc1cc2cc(C(=O)CCC(=O)O)sc2cc1OC` + Cc1cccc(N(C)C(=O)C2C(O)CCN2c2nc(C)cc(C(F)(F)F)c2C#N)c1, for which the IC50 is more than 10 µM.

With `O=C(Nc1ccc(O)c(NS(=O)(=O)c2ccc(F)cc2)c1)c1ccc(-c2ccccc2)cc1` + Cc1cccc(N(C)C(=O)C2C(O)CCN2c2nc(C)cc(C(F)(F)F)c2C#N)c1, the IC50 is more than 10 µM.

With `Nc1ccn(C2OC(CO)C(O)C2(F)F)c(=O)n1` (stereo unspecified) + Nc1ccc(C#CCN(C(=O)Cc2ncc(C(F)(F)F)cc2C(F)(F)F)c2ccc(F)cc2)nn1, the half-maximal inhibitory concentration (IC50) is more than 10 µM.

Staying with this assay, now noted: second compound 0.0316 µM; first compound 0.0316 µM; stronger effect = lower value.
`COc1cc2cc(C(=O)CCC(=O)O)sc2cc1OC` + Cc1cccc(N(C)C(=O)C2C(O)CCN2c2nc(C)cc(C(F)(F)F)c2C#N)c1: the viability, T/C was 100%.

On to `O=C(Nc1ccc(O)c(NS(=O)(=O)c2ccc(F)cc2)c1)c1ccc(-c2ccccc2)cc1` + Cc1cccc(N(C)C(=O)C2C(O)CCN2c2nc(C)cc(C(F)(F)F)c2C#N)c1, for which the viability, T/C was 111%.

With `Nc1ccn(C2OC(CO)C(O)C2(F)F)c(=O)n1` (stereo unspecified) + Nc1ccc(C#CCN(C(=O)Cc2ncc(C(F)(F)F)cc2C(F)(F)F)c2ccc(F)cc2)nn1, the viability, T/C is 103%.

Staying with this assay, now noted: second compound 0.0316 µM; first compound 0.1 µM; stronger effect = lower value.
Consider `COc1cc2cc(C(=O)CCC(=O)O)sc2cc1OC` + Cc1cccc(N(C)C(=O)C2C(O)CCN2c2nc(C)cc(C(F)(F)F)c2C#N)c1, for which the viability, T/C is 106%.

As for `O=C(Nc1ccc(O)c(NS(=O)(=O)c2ccc(F)cc2)c1)c1ccc(-c2ccccc2)cc1` + Cc1cccc(N(C)C(=O)C2C(O)CCN2c2nc(C)cc(C(F)(F)F)c2C#N)c1, the viability, T/C was 107%.

With `Nc1ccn(C2OC(CO)C(O)C2(F)F)c(=O)n1` (stereo unspecified) + Nc1ccc(C#CCN(C(=O)Cc2ncc(C(F)(F)F)cc2C(F)(F)F)c2ccc(F)cc2)nn1, the viability, T/C is 92.8%.

Still in this assay, the particulars now being: second compound 0.0316 µM; first compound 0.316 µM; stronger effect = lower value.
Consider `COc1cc2cc(C(=O)CCC(=O)O)sc2cc1OC` + Cc1cccc(N(C)C(=O)C2C(O)CCN2c2nc(C)cc(C(F)(F)F)c2C#N)c1, for which the viability, T/C was 96.5%.

In the case of `O=C(Nc1ccc(O)c(NS(=O)(=O)c2ccc(F)cc2)c1)c1ccc(-c2ccccc2)cc1` + Cc1cccc(N(C)C(=O)C2C(O)CCN2c2nc(C)cc(C(F)(F)F)c2C#N)c1, the viability, T/C was 92.2%.

Regarding `Nc1ccn(C2OC(CO)C(O)C2(F)F)c(=O)n1` (stereo unspecified) + Nc1ccc(C#CCN(C(=O)Cc2ncc(C(F)(F)F)cc2C(F)(F)F)c2ccc(F)cc2)nn1, the viability, T/C was 92.1%.

Still in this assay, the particulars now being: second compound 0.0316 µM; first compound 1 µM; stronger effect = lower value.
In the case of `COc1cc2cc(C(=O)CCC(=O)O)sc2cc1OC` + Cc1cccc(N(C)C(=O)C2C(O)CCN2c2nc(C)cc(C(F)(F)F)c2C#N)c1, the viability, T/C was 99.5%.

For `O=C(Nc1ccc(O)c(NS(=O)(=O)c2ccc(F)cc2)c1)c1ccc(-c2ccccc2)cc1` + Cc1cccc(N(C)C(=O)C2C(O)CCN2c2nc(C)cc(C(F)(F)F)c2C#N)c1, the viability, T/C is 103%.

With `Nc1ccn(C2OC(CO)C(O)C2(F)F)c(=O)n1` (stereo unspecified) + Nc1ccc(C#CCN(C(=O)Cc2ncc(C(F)(F)F)cc2C(F)(F)F)c2ccc(F)cc2)nn1, the viability, T/C is 91.3%.

Still in this assay, the particulars now being: second compound 0.0316 µM; first compound 3.16 µM; stronger effect = lower value.
In the case of `COc1cc2cc(C(=O)CCC(=O)O)sc2cc1OC` + Cc1cccc(N(C)C(=O)C2C(O)CCN2c2nc(C)cc(C(F)(F)F)c2C#N)c1, the viability, T/C was 105%.

Broadly, the IC50 is the concentration that gives 50% inhibition. One may read the viability, T/C as the ratio of treated to control.
